This is an account of results in patent US8722014B2, “1 H-[1, 2, 3] triazole substituted amino acids and uses thereof” (Washington University, priority 2009, dated 2014).

The test system of the experiment is 9L gliosarcoma cells. As to the kind of experiment: Cell uptake assay in 9L gliosarcoma cells with amino acid transport inhibitors (cluster tray method). In kind it is cell-based. The settings on record: for percent uptake relative to control, Na ASC: L-Ala/L-Ser/L-Cys 3.3 mM each. How it is done:
The 9L gliosarcoma tumor is an established model for human glioblastoma (brain tumor). Cell uptake assays were performed with 9L gliosarcoma cells using both (R)-[^18F]4 and (S)-[^18F]4. 9L gliosarcoma cells were cultured with Earle's minimal essential medium (MEM) augmented with 10% newborn calf serum, 1% 200 mM L-glutamine, 1% MEM vitamin solution and 1% 10 mM non-essential amino acids (NEAA). The cells were passaged every two to three days prior to use with no more than a total of 20 passages. Two to three days before the uptake assays, suspension of 2.5 or 5.0×10^4 cells in culture media were aliquoted into Costar 24 well plates to achieve log growth phase with approximately 70% confluency at the time of the uptake assay (approximately 10^5 cells per well).
Cell uptake assays were performed using the cluster tray method reported in Gazzola et al., Anal. Biochem. 115: 368-374, 1981. Two buffers were used for the assays, a phosphate buffered saline solution and a sodium-free phosphate buffered choline chloride solution. […] The choline buffer was the same as the sodium buffer except choline chloride was substituted for sodium chloride and choline phosphate dibasic was substituted for sodium phosphate dibasic. A 250 mM solution of choline phosphate dibasic was prepared by boiling 95.6 mL of 75% of choline bicarbonate (0.500 mol) and 16.9 mL of 85% aqueous phosphoric acid (0.247 mol) in 750 mL of water for 60 min. The solution was brought to a total volume of 1 liter with water and brought to pH 7.4 with concentrated aqueous hydrochloric acid. The pH of the sodium and choline buffer solutions was adjusted to 7.4 with concentrated aqueous hydrochloric acid prior to use.
A variety of inhibitor conditions were used to determine which amino acid transport system or systems were responsible for cellular uptake of (R)- and (S)-[^18F]-4. The N-methylated amino acid, methylaminoisobutyric acid (MeAIB), is a selective system A substrate and has been used extensively as a competitive inhibitor of system A transport (Shotwell, M. A., et al. Biochem. Biophys. Acta. 737: 267-284, 1983; Christensen, H. N., et al., J. Biol. Chem. 240: 3609-3616, 1965) The bulky neutral amino acid, 2-aminobicyclo-(2,2,1)-heptane-2-carboxylic acid (BCH), has been extensively used as a competitive inhibitor of system L transport, and under sodium-free conditions BCH is a selective system L inhibitor (Palacin, M., et al., Physiol. Rev. 78: 969-1054, 1998. In the presence of sodium, BCH is also an inhibitor of system B^0,+ which is a sodium-dependent amino acid transporter that typically is a minor transport systems in most tissues. A mixture of L-alanine (L-Ala), L-serine (L-Ser) and L-cysteine (L-Cys), (ASC), was used as a non-specific inhibitor condition, and this combination of amino acids is expected to inhibit a broad range of amino acid transport systems including system ASC. Because of the results of initial cell uptake assays described below and the structural relationship of the 1H-1,2,3-triazole group to the imidazole side chain of L-histidine (L-His), additional uptake assays using L-His as well as the basic side chain amino acids L-arginine (L-Arg) and L-lysine (L-Lys) individually and together (RKH) as competitive inhibitors were performed.
The following inhibitors were added to the appropriate sodium or choline buffer: N-methyl aminoisobutyric acid (MeAIB, 10 mM), a mixture of L-alanine/L-serine/L-cysteine (ASC, 3.3 mM of each amino acid), (R,S)-(endo,exo)-2-aminobicyclo(2,2,1)-heptane-2-carboxylic acid (BCH, 10 mM), L-arginine (Arg, 10 mM), L-lysine (Lys, 10 mM), L-histidine (His, 10 mM) and a mixture of Arg/Lys/H is (RKH, 3.3 mM of each amino acid). For control conditions, 10 mM of sucrose was added to maintain consistent osmolality relative to the inhibitor conditions. The pH of each solution of inhibitor in buffer was adjusted as necessary to 7.40 with 3 M aqueous hydrochloric acid prior to use in cell uptake assays. […]

As to `Cl.N[C@@H](Cc1cn(CC[18F])nn1)C(=O)O` [(S)-[^18F]4, (S)-2-amino-3-[1-(2-fluoroethyl)-1H-[1,2,3]triazol-4-yl]propanoic acid hydrochloride salt-[^18F]], the “inhibition of uptake by ASC condition relative to the sodium control” value (neutral amino acid inhibitor assay, p<0.001) is recorded as 89%. The “inhibition of uptake by L-His, L-Arg and L-Lys” value (range over the three basic amino acids) is listed as 50-69%. Moreover, for the setting “sodium buffer”, the “inhibition of uptake by L-Arg relative to control” value amounted to 50% and the “inhibition of uptake by L-His relative to control” value turned out to be 69%. For the same compound, under “sodium buffer, Arg/Lys/His 3.3 mM each (FIG. 4/6)”, the “percent uptake relative to control, Na RKH” value is reported as 37±6%. Besides, the “percent uptake relative to control, Na BCH” value (sodium buffer, BCH 10 mM, 30 sec uptake, neutral amino acid inhibitor assay (FIG. 3/5)) was 74±13%. Under “sodium buffer, 30 sec uptake, neutral amino acid inhibitor assay (FIG. 3/5)”, the “percent uptake relative to control, Na ASC” value is 11±7%. In addition, the “percent uptake relative to control, Na ASC” value (sodium buffer, basic side chain amino acid inhibitor assay (FIG. 4/6)) is 2.4±3.5%. Moreover, for the setting “sodium buffer, L-arginine 10 mM (FIG. 4/6)”, the “percent uptake relative to control, Na Arg” value is reported as 50±9%. Further, the “percent uptake relative to control, Na His” value (sodium buffer, L-histidine 10 mM (FIG. 4/6)) is 31±5%. Further, under “sodium buffer, L-lysine 10 mM (FIG. 4/6)”, the “percent uptake relative to control, Na Lys” value worked out at 46±4%. Besides, the “percent uptake relative to control, Na MeAIB” value (sodium buffer, MeAIB 10 mM, 30 sec uptake, neutral amino acid inhibitor assay (FIG. 3/5)) worked out at 82±7%. In addition, under “sodium control vs sodium BCH”, the “inhibition of uptake by BCH versus control in the presence of sodium” value came out at 26%. For the same compound, the “inhibition of uptake by substituting choline for sodium” value (sodium control vs. choline control) amounted to 42%. Where the note is “sodium free conditions”, the “reduction of uptake by BCH relative to the choline control” value was “approximately 50%”. Moreover, for the setting “sodium-free choline buffer, BCH 10 mM, relative to sodium control (FIG. 3/5)”, the “percent uptake relative to control, Cho BCH” value turned out to be 30±6%. Moreover, the “percent uptake relative to control, Cho sucrose” value (sodium-free choline buffer, sucrose 10 mM, relative to sodium control (FIG. 3/5)) was 58±7%. The “inhibition of uptake by MeAIB” value (system A inhibitor MeAIB, sodium buffer) is on record as “no significant inhibition”.
